Reference: patent US10010541B2, “Modulation of tissue transglutaminase activation in disease” (The Board of Trustees of the Leland Stanford Junior …, priority 2014, dated 2018)

Legend:
TG2 [1] = biological target: T1, TG2 (Homo sapiens, UniProt P21980); assay: glutamate dehydrogenase-coupled deamidation assay, substrate Cbz-Gln-Gly; assay type: biochemical; settings: irreversible inhibition model, full progress curves
T1 sequence (P21980 1-687): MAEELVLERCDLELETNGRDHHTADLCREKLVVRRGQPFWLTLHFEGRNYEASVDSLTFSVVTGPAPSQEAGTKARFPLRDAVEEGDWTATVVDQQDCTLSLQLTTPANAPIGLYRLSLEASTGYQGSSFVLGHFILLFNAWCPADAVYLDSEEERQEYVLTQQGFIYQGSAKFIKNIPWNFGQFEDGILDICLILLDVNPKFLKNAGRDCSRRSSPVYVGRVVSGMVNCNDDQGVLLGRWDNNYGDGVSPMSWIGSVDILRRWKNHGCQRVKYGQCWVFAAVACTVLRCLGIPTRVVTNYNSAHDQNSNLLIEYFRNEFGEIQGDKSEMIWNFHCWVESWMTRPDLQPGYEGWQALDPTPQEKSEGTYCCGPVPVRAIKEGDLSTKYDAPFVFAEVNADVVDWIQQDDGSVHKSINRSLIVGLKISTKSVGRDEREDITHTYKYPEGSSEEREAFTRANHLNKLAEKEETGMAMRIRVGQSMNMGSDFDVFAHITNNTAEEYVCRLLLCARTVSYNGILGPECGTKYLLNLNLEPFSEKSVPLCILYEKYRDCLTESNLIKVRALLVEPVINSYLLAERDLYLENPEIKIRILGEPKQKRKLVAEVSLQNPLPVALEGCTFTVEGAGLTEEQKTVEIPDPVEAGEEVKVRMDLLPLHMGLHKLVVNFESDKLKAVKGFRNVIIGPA

TG1 = biological target: T2, TG1 (Homo sapiens, UniProt P22735); assay: glutamate dehydrogenase-coupled deamidation assay, substrate Cbz-Gln-Ser; assay type: biochemical; settings: irreversible inhibition model, full progress curves
T2 sequence (P22735 1-817): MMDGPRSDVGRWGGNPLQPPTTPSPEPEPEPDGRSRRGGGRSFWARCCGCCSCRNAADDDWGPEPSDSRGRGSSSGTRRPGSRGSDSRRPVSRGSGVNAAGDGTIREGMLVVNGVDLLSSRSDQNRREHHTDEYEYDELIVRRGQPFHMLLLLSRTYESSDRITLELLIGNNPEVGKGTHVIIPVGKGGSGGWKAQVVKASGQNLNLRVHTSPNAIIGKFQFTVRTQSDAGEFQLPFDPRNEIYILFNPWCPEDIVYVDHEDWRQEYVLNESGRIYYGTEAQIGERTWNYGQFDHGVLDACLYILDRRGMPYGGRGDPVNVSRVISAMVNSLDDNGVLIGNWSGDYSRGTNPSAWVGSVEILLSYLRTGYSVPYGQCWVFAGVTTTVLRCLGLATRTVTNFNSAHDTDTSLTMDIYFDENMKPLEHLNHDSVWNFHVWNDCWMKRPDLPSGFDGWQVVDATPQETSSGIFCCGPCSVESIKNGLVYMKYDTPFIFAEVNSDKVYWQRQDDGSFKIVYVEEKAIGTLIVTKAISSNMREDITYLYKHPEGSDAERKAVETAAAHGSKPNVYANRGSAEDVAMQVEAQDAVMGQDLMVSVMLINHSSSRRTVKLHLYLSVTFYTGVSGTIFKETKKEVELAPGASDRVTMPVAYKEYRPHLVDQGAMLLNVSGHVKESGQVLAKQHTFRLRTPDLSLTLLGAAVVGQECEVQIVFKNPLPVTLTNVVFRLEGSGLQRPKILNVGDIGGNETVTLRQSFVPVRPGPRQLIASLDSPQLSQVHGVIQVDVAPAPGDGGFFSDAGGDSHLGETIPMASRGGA

TG2 [2] = biological target: T3, TG2 (Mus musculus, UniProt P21981); assay: TG2 activity (5-BP probe) in tissues of LPS-induced septic mice; assay type: in vivo; settings: septic mice (LPS 5 mg/kg iv); 50 mg/kg intraperitoneally
T3 construct: host or cells: mice (in vivo)
T3 sequence (P21981 1-686): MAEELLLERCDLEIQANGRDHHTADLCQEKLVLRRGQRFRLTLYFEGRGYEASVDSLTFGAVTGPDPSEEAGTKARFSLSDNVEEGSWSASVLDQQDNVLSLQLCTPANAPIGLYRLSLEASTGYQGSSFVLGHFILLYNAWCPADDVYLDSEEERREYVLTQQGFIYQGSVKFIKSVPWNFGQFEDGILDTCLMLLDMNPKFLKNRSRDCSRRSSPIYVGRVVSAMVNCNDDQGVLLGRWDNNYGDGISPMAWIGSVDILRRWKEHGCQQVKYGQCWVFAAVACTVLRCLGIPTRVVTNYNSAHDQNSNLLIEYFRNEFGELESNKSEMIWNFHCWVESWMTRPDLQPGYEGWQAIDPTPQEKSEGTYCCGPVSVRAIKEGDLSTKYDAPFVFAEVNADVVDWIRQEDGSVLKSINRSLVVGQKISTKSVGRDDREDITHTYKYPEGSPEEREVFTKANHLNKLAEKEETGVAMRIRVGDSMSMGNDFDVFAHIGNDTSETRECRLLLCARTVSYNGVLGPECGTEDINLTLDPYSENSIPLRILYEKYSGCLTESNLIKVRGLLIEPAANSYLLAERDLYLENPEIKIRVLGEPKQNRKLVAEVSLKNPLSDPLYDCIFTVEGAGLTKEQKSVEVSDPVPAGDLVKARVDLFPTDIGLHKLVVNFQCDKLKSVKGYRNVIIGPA
Method: FIG. 2: TG2 is active in septic mice and can be inhibited by the intraperitoneal administration of 50 mg/kg CK996: Panels (A) through (C) depict tissues from the liver, lung and small intestine from septic male BL6 mice that were stained for TG2 protein (top row) or TG2 activity (middle row). The bottom row depicts the merged images from the TG2 protein and activity channel, respectively. Tissues from mice that had received the TG2 inhibitor CK996 are shown in the right set of images in each panel whereas tissues from control mice that received vehicle only are shown in the left set of images. Panel (D) quantifies the ratio of TG2 activity to TG2 protein signal intensity. All mice in this study received lipopolysaccharide (LPS, 5 mg/kg i.v., at t=0) and the TG2 activity-based probe 5-biotinamidopentylamine (5-BP, 100 mg/kg i.p., at t=0 and 90 min)(Dafik et al., 2012; Siegel et al., 2008). One cohort of mice additionally received an intraperitoneal dose of the TG2 inhibitor CK996 (50 mg/kg i.p., at t=0 and 60 min) in vehicle (PBS with 10% DMSO and 2% 2,6-di-(OMe)-beta-cyclodextrin), whereas the control mice received the vehicle alone. At 3 hours the mice were euthanized, tissues collected and frozen in OCT medium and then TG2 protein and activity (5-BP) stained, imaged and quantified as described in the literature (Diraimondo et al., 2013 ACS Chem. Biol.). […]

kinh/Ki TG2 (TG2 [1]): 1800 M⁻¹ s⁻¹
kinh/Ki TG1 (TG1): 333 M⁻¹ s⁻¹
TG2 activity in intestines, livers and lungs (TG2 [2]): fully suppressed
Compound: O=C(N[C@@H]1C[C@@H](C(=O)NC[C@@H]2CC(Br)=NO2)N(C(=O)OCc2cnc3ccccc3c2)C1)c1cccnc1 [Compound 5, (2S,4R)-quinolin-3-ylmethyl 2-((((S)-3-bromo-4,5-dihydroisoxazol-5-yl)methyl)carbamoyl)-4-(nicotinamido)pyrrolidine-1-carboxylate]
